Read-outs that look alike come from different tables or passages of the source.
Key:
human AR = biological target: T1, human AR (Homo sapiens, UniProt P10275); test: biochemical; type: binding
T1 construct: expressed in transfected cells; host or cells: PC3/AR cells (gift of Dr. Kerry Burnstein, University of Miami); cytosolic fraction of sonicated lysate
T1 sequence (P10275 1-920): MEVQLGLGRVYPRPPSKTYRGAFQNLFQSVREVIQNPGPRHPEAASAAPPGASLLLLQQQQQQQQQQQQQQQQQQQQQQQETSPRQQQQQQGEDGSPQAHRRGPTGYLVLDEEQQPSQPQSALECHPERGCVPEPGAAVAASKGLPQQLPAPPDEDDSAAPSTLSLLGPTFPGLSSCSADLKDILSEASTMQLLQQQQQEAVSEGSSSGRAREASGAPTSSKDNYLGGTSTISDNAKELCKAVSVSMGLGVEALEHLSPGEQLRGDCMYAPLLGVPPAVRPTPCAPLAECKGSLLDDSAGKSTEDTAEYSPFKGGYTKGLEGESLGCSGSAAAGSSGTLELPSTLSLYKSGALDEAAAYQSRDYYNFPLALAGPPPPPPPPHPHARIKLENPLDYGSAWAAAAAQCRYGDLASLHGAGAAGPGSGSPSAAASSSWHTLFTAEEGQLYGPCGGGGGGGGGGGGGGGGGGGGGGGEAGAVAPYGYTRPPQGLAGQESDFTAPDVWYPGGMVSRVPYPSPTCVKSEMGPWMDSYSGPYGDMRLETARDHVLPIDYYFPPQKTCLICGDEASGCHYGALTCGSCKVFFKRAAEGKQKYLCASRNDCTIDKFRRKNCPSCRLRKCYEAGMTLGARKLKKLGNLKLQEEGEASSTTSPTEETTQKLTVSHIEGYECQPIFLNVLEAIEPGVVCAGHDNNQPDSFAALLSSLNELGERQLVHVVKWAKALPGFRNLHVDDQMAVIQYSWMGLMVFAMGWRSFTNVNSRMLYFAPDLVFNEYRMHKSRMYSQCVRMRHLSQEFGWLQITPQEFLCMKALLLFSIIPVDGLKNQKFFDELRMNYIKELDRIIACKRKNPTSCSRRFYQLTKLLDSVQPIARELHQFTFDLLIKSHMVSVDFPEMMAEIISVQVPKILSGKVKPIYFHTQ

AR-GFP receptor = type: cell-based; conditions: for inhibition of the action of 1.0 nM Mibolerone on AR-GFP: co-treatment with 1.0 nM Mibolerone
Protocol: PC3 cells were, therefore, grown in 6 well plates and transiently transfected with a plasmid containing the AR-GFP construct obtained from Dr. Arun Roy (UTHSC; San Antonio, Tex.).
This cell suspension was dispensed in 2 mL aliquots into 6-well tissue culture plates. […] To each solution was added 2 μL of a 800 μg/mL solution of the pEGFP-C2 rcAR plasmid in Millipore water. After gentle mixing, the transfection cocktail was allowed to incubate at room temperature for 40 min. […] The growth medium was again replaced with 1 mL of phenol red-free RPMI supplemented with dextran-coated charcoal-stripped FBS. Candidate AR-GFP expressing cells in each well were identified and marked before an appropriate concentrations of the test compounds were added in 10 μL of sterile DMSO.

estrogen receptor = biological target: T2, estrogen receptor (Homo sapiens, UniProt P03372); test: Estrogen receptor competitive binding assay (3H-E2, MCF-7 cell lysate); conditions: relative to E/Z-4-OHT = 100
T2 construct: endogenous in cells; host or cells: MCF-7 cells (ATCC); 225,000 g supernatant of sonicated lysate

[1] = Hydrolysis of anthracycline-formaldehyde N-Mannich bases followed by HPLC; conditions: for stability under AR binding assay conditions: reaction buffer, 30 min incubation at 4° C., HPLC
Protocol: The area under the curve for the N-Mannich base was determined at each time point and was used to establish the kinetics of decomposition, using regression software. Hydrolysis of AOM-doxsaliform was carried out in pH 8.0 100 mM sodium phosphate buffer at 37° C. AOM-doxsaliform was dissolved in 48.0 μL DMSO and this solution was diluted into phosphate buffer to give 4.8 mL of an […] solution containing 1% DMSO. To this solution was added 6 μL of pig liver esterase (0.8 units/μL; Sigma; Milwaukee, Wis.) to achieve a final concentration of 1.0 units/mL. […] Brief centrifugation served to pellet the insoluble fraction. The drug solution was then transferred to a round bottom flask and concentrated by brief rotary-evaporation at 20° C. Reverse phase HPLC was used to analyze the extent of hydrolysis.
Hydrolysis of the N-Mannich bases, prepared from either doxorubicin or daunorubicin and the respective amides, at 37° C. in pH 7.4 triethylammonium acetate (TEAA) buffer (20 mM) containing 10-30% MeOH was monitored by reverse phase HPLC. […] Identification of a less robust construct that could be used to rapidly deliver the active Schiff base metabolite of doxorubicin to a growing tumor was undertaken.

PC3/AR and PC3/neo cells = conditions: for intracellular distribution of fluorescence over time: 3 h treatment / over time
Protocol: The fluorescence of doxorubicin can be monitored in order to determine the rate of uptake and intracellular distribution of the anthraquinone fluorophore.
This cell suspension was dispensed in 2 mL aliquots into 6-well tissue culture plates. Plates were then incubated for 36 h at 37° C. in a humidified atmosphere of 5% CO2 and 95% air. The medium was replaced with 1 mL of phenol red-free RPMI 1640 growth medium supplemented with 10% dextran-coated charcoal stripped FBS prior to addition of the test compound. The appropriate compound was dissolved in DMSO and the concentration was adjusted to 50-200 μM by measuring the solution absorbance at 480 nm. Addition of 10 μL of the appropriate doxorubicin or prodrug solution was followed by incubation at 37° C. as indicated. The drug solution in individual wells was removed at the appropriate time and the cells were washed with 1 mL of the phenol red-free growth medium. The washed cells were then supplemented with 1 mL of phenol-red free growth medium for imaging.

[2] = relative binding affinity (Table 4, Example 3 numbering)
[3] = vs 1.0 nM 3H-Mibolerone, PC3/AR cell lysate, 4° C. (Table 4, Example 3 numbering)
[4] = vs 1.0 nM 3H-Mibolerone, PC3/AR cell lysate, 4° C., 30 min (Table 3, Example 2 numbering)

T2 sequence (P03372 whole entry): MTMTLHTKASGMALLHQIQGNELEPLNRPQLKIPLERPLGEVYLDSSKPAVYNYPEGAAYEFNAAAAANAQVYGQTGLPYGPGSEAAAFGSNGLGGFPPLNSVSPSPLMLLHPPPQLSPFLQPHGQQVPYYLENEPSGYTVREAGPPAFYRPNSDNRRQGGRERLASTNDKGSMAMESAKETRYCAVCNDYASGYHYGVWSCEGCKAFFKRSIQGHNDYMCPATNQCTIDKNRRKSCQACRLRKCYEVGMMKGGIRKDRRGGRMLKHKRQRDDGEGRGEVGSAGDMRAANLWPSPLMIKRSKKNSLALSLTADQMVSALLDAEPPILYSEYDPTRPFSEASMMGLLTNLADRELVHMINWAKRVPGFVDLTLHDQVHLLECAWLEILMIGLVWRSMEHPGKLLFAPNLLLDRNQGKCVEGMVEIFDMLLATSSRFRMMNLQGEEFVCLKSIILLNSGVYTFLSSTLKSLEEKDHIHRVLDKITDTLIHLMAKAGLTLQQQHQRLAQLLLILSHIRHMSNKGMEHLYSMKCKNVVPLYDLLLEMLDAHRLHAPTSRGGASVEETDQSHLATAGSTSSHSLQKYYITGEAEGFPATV

Compound: CC1(C)C(=O)N(c2ccc(C#N)c(C(F)(F)F)c2)C(=O)N1CCOCCN1CCN(CCOCc2ccc(O)c(C(N)=O)c2)CC1 [12b]
- RBA (human AR): 3
- RBA (human AR; [2]): 3
- IC50 (human AR; [3]): 346 nM
- IC50 (human AR; [4]): 346 nM
- inhibition of the action of 1.0 nM Mibolerone on AR-GFP (AR-GFP receptor): not capable of inhibiting the action of 1.0 nM Mibolerone
- nuclear translocation of AR-GFP (AR-GFP receptor; concentration not given): does not instigate translocation

Compound: CCC(=C(c1ccc(O)cc1)c1ccc(OCCN(C)CCON=Cc2ccc(O)c(C(N)=O)c2)cc1)c1ccccc1 [10a]
- RBA^OHT (estrogen receptor): 1.7

Compound: COc1cccc2c1C(=O)c1c(O)c3c(c(O)c1C2=O)C[C@@](O)(C(=O)CO)C[C@@H]3OC1C[C@H](NCNC(=O)c2cc(COCC#CCN3C(=O)N(c4ccc(C#N)c(C(F)(F)F)c4)C(=O)C3(C)C)ccc2O)[C@H](O)[C@H](C)O1 (stereo partly shown) [compound 13, N-(5-{4-[3-(4-Cyano-3-trifluoromethyl-phenyl)-5,5-dimethyl-2,4-dioxo-imidazolidin-1-yl]-but-2-ynyloxymethyl)-2-hydroxy-benzamidomethyl)-doxorubicin]
- stability under AR binding assay conditions [1]: no appreciable hydrolysis
- stability under AR binding assay conditions ([1]; listed as 9): stable under the assay conditions
- IC50 (human AR): 90 nM
- RBA (human AR): 10
- RBA (human AR; [2]): 10
- intracellular distribution of fluorescence over time (PC3/AR and PC3/neo cells): primarily localized to the nucleus

Compound: CC1(C)C(=O)N(c2ccc(C#N)c(C(F)(F)F)c2)C(=O)N1CCCCN1CCN(CCOCc2ccc(O)c(C(N)=O)c2)CC1 [12a, 5-[2-(4-{4-[3-(4-Cyano-3-trifluoromethyl-phenyl)-5,5-dimethyl-2,4-dioxo-imidazolidin-1-yl]-butyl}-piperazin-1-yl)-ethoxymethyl]-2-hydroxy-benzamide]
- RBA (human AR): <1
- RBA (human AR; [2]): <1
- IC50 (human AR; [3]): > 1000 nM
- inhibition of the action of 1.0 nM Mibolerone on AR-GFP (AR-GFP receptor): not capable of inhibiting the action of 1.0 nM Mibolerone
- nuclear translocation of AR-GFP (AR-GFP receptor; concentration not given): does not instigate translocation

Compound: CC1(C)NC(=O)N(c2ccc(C#N)c(C(F)(F)F)c2)C1=O [2f, 4-(4,4-Dimethyl-2,5-dioxo-imidazolidin-1-yl)-2-trifluoromethylbenzonitrile]
- IC50 (human AR): 6 nM
- RBA (human AR): 150
- RBA as fraction of nilutamide binding (human AR): 150%
- nuclear translocation of AR-GFP (AR-GFP receptor; concentration not given): induce partial translocation

Compound: CC1(C)C(=O)N(c2ccc(C#N)c(C(F)(F)F)c2)C(=O)N1CC#CCOCc1ccc(O)c(C(N)=O)c1 [8c, 5-{4-[3-(4-Cyano-3-trifluoromethyl-phenyl)-5,5-dimethyl-2,4-dioxo-imidazolidin-1-yl]-but-2-ynyloxymethyl}-2-hydroxy-benzamide]
- IC50 (human AR; [4]): 49 nM

Compound: C[C@@H]1CC2=CC(=O)CC[C@@H]2[C@H]2CC[C@@]3(C)[C@@H](CC[C@]3(C)O)[C@@H]21 [Mibolerone, reference compound]
- nuclear translocation of AR-GFP (AR-GFP receptor; 1.0 nM): causes nuclear translocation of the AR-GFP receptor

Compound: CCC(=C(c1ccc(O)cc1)c1ccc(OCCN(C)CCOCCON=Cc2ccc(O)c(C(N)=O)c2)cc1)c1ccccc1 [10b, E/Z-2-Hydroxy-5-[(2-{2-[(2-{4-[1-(4-hydroxy-phenyl)-2-phenyl-but-1-enyl]-phenoxy}-ethyl)-methyl-amino]-ethoxy}-ethoxyimino)-methyl]-benzamide]
- RBA^OHT (estrogen receptor): 3.3

Compound: CCCC(=O)OCOc1ccc(COCC#CCN2C(=O)N(c3ccc(C#N)c(C(F)(F)F)c3)C(=O)C2(C)C)cc1C(=O)NCNC1CC(OC2CC(O)(C(=O)CO)Cc3c(O)c4c(c(O)c32)C(=O)c2c(OC)cccc2C4=O)OC(C)C1O (stereo not shown) [compound 10, N-(5-{4-[3-(4-Cyano-3-trifluoromethyl-phenyl)-5,5-dimethyl-2,4-dioxo-imidazolidin-1-yl]-but-2-ynyloxymethyl}-2-butyryloxymethoxybenzamidomethyl)-doxorubicin]
- stability under AR binding assay conditions [1]: stable under the assay conditions
- RBA (human AR; [2]): 14
- IC50 (human AR; [3]): 63 nM
- nuclear translocation of AR-GFP (AR-GFP receptor; 1.0 μM (up to)): did not instigate translocation into the nucleus
- inhibition of the action of 1.0 nM Mibolerone on AR-GFP (AR-GFP receptor): did serve to inhibit the action of 1.0 nM Mibolerone
- intracellular distribution of fluorescence over time (PC3/AR and PC3/neo cells): remains primarily cytosolic over time
- initial intracellular distribution of fluorescence (PC3/AR and PC3/neo cells; upon initial treatment, 500 nM): predominantly cytosolic

Compound: CC1(C)C(=O)N(c2ccc(C#N)c(C(F)(F)F)c2)C(=O)N1CCOCCOCc1ccc(O)c(C(N)=O)c1 [8a, 5-(2-{2-[3-(4-Cyano-3-trifluoromethyl-phenyl)-5,5-dimethyl-2,4-dioxo-imidazolidin-1-yl]-ethoxy}-ethoxymethyl)-2-hydroxy-benzamide]
- IC50 (human AR; [3]): 77 nM
- IC50 (human AR; [4]): 77 nM

Compound: CCC(=C(c1ccc(O)cc1)c1ccc(OCCN(C)CCOCCOCCON=Cc2ccc(O)c(C(N)=O)c2)cc1)c1ccccc1 [10c]
- RBA^OHT (estrogen receptor): 3.3

Compound: CC1(C)C(=O)N(c2ccc(C#N)c(C(F)(F)F)c2)C(=O)N1CCOCCOCCOCc1ccc(O)c(C(N)=O)c1 [8b, 5-[2-(2-{2-[3-(4-Cyano-3-trifluoromethyl-phenyl)-5,5-dimethyl-2,4-dioxo-imidazolidin-1-yl]-ethoxy}-ethoxy)-ethoxymethyl]-2-hydroxy-benzamide]
- IC50 (human AR; [3]): 332 nM
- IC50 (human AR; [4]): 332 nM

Compound: CCCC(=O)OCOc1ccc(COCC#CCN2C(=O)N(c3ccc(C#N)c(C(F)(F)F)c3)C(=O)C2(C)C)cc1C(N)=O [6b]
- nuclear translocation of AR-GFP (AR-GFP receptor; concentration not given): causing nuclear translocation of the AR upon binding

Compound: COc1cccc2c1C(=O)c1c(O)c3c(c(O)c1C2=O)C[C@@](O)(C(=O)CO)C[C@@H]3O[C@H]1C[C@H](NCNC(=O)c2ccccc2OCOC(C)=O)[C@H](O)[C@H](C)O1 [AOM-doxsaliform, N-[(2-Acetoxymethyloxy)-benzamidomethyl]-doxorubicin]
- release of doxorubicin from acetoxymethylene-protected derivative ([1]; 37° C., pH 7.3 RPMI 1640, 3 h of observation): no hydrolysis was evident
- intracellular distribution of fluorescence over time (PC3/AR and PC3/neo cells): accumulate, at least to some extent over time (>3 h), in the nuclei

Reference: patent US20070275911A1, “Targeted Drug-Formaldehyde Conjugates and Methods of Making and Using the Same” (priority 2003, published 2007)
